Data set [1] concerns the target Glucagon receptor (Homo sapiens, UniProt P47871). Briefly: Inhibition of human GCGR receptor.
Data set [2] deals with T1, Tyrosine-protein phosphatase non-receptor type 1 (Homo sapiens, UniProt P18031).
T1 sequence (P18031 whole entry): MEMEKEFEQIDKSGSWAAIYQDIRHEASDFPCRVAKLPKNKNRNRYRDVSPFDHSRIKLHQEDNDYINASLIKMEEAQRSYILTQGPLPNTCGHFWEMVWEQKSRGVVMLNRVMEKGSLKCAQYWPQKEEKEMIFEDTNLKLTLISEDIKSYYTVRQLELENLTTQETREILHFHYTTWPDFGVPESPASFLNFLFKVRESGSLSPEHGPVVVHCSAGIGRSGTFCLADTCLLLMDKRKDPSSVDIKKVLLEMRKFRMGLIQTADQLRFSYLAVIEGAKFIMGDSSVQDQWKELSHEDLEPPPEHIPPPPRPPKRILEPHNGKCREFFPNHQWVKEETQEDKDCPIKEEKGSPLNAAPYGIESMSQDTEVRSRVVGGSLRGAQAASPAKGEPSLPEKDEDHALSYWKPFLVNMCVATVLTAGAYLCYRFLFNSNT
As to the kind of experiment: Inhibition of human GST-tagged PTP1B expressed in Escherichia coli using pNPP as substrate by spectroscopic analysis.

In data set [3] the target is T2, Free fatty acid receptor 1 (Homo sapiens, UniProt O14842). As to the kind of experiment: Agonist activity at FFAR1 (unknown origin) incubated for 16 hrs by Promoter-luciferase assay.
Data set [4] in a line: Oral bioavailability in Wistar rat at 3 mg/kg. The data set is classed as ADME, organism-based. The following applies: in vivo.
Data set [5] has as its target Free fatty acid receptor 1 (Rattus norvegicus) (UniProt Q8K3T4). As to the kind of experiment: In vivo agonist activity at FFAR1 in iv dosed streptozotocin (STZ)-induced Wistar rat model assessed as reduction in blood glucose AUC and measured upto 120 mins by OGTT analysis. The data set is classed as functional, organism-based.
A short description of data set [6]: Clearance in Wistar rat at 1 mg/kg,iv. The following applies: in vivo. The data set is classed as ADME, organism-based.
In data set [7] the target is Free fatty acid receptor 1 (Rattus norvegicus) (UniProt Q8K3T4). As to the kind of experiment: In vivo agonist activity at FFAR1 in streptozotocin (STZ)-induced Wistar rat assessed as reduction in blood glucose AUC at 1 mg/kg,iv and measured upto 120 mins by OGTT analysis. The data set is classed as functional, organism-based. Further details: scale not given: the % may be the effect or the level left.

The target of data set [8] is T2, Free fatty acid receptor 1. Briefly: Agonist activity at human GPR40 expressed in HEK293 cells incubated for 1 hrs by calcium flux assay. The data set is classed as cell-based.
The target of data set [9] is T3, Free fatty acid receptor 4 (Homo sapiens, UniProt Q5NUL3).
T3 sequence (Q5NUL3 whole entry): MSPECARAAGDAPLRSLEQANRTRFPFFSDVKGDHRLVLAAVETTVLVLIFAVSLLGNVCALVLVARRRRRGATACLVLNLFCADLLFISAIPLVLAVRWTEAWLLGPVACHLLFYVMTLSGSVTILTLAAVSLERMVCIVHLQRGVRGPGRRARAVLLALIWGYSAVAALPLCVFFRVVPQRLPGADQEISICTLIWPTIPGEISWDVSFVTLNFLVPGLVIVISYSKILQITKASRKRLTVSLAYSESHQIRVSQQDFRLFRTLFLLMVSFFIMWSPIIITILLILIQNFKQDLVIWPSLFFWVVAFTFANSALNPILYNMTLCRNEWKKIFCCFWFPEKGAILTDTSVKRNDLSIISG
As to the kind of experiment: Agonist activity at FFA4 (unknown origin) expressed in CHO-K1 cells by BRET assay. The data set is classed as cell-based.

T2 sequence (O14842 whole entry): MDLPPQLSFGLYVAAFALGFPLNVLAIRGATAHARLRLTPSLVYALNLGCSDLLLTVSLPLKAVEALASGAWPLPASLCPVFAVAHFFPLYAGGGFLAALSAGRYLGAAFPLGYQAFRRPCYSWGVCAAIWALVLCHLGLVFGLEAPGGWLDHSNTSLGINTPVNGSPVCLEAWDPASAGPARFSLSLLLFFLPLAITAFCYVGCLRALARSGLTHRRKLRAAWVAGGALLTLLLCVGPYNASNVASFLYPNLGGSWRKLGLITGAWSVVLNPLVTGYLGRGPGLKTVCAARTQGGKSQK
Sequence of Free fatty acid receptor 1 (Rattus norvegicus) (Q8K3T4 whole entry): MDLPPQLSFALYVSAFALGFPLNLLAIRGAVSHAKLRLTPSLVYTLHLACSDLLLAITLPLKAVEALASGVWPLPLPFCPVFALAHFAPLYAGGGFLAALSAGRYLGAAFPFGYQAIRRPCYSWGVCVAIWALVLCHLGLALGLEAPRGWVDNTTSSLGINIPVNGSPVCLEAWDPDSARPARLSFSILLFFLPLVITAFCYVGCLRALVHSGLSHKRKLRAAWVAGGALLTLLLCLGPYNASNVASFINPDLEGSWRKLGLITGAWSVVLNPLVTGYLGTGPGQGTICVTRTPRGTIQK
Sequence of Glucagon receptor (P47871 whole entry): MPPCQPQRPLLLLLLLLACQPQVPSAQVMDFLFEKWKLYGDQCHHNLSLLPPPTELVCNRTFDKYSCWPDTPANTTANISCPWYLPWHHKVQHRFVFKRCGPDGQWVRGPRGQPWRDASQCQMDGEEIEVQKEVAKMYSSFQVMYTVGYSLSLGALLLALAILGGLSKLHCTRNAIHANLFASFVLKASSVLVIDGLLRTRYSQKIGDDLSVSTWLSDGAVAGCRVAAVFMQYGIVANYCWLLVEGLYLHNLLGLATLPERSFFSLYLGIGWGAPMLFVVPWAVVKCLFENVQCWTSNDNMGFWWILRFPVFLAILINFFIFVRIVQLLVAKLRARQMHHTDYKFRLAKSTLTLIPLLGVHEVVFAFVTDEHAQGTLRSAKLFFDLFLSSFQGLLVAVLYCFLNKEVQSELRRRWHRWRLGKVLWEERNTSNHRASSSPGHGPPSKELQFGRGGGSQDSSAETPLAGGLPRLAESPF

For the molecule `Cc1cc(O[C@@H](CCC(F)(F)F)c2ccc(C(=O)NCCC(=O)O)cc2)cc(C)c1-c1ccc(C(C)(C)C)cc1` [ADOMEGLIVANT], the inhibition constant Ki in data set [1] was 6.6 nM.

`COc1cc(C(=O)c2c(CBr)cc(OC)c(OC)c2Br)c(Br)c(Br)c1OC`: the IC50 in data set [2] was 2070 nM.

Take `CC#CC(CC(=O)O)c1ccc(OCc2cccc(CN3CCc4oc(C5CC5)nc4C3)c2)cc1` (centres undefined): the response in data set [3] was half-maximal at 50 nM (EC50). Also, in data set [4], the bioavailability worked out at 45%. Besides, in data set [5], the ED50 amounted to 0.09 mg/kg. Besides, in [6], the clearance came to 0.27 mL/min/kg. Also, in data set [7], the Activity turned out to be 46%.

On to `COc1ccc(F)c(-c2ncc(COc3ccc([C@@H](CC(=O)O)C4CC4)cc3)nc2OCCC(F)(F)F)c1`, for which the concentration for a half-maximal effect (EC50) in data set [8] is 6 nM.

In the case of `O=C(O)CCCc1ccc(OCC2=C(c3ccc(C4CC4)cc3)CCCC2)cc1`, the midpoint of the response in [9], the EC50, lay at 50 nM.

Usually Ki stands for the dissociation constant of the complex between target and ligand, obtained from inhibition or displacement. As usually defined, the IC50 is the concentration at which inhibition is half-maximal. As usually defined, the EC50 is the concentration giving half of the maximal effect. By bioavailability is commonly meant the share of a dose that reaches the circulation, judged against a reference dose that is usually intravenous. In general, ED50 refers to the dose at which the effect has come halfway, by size or by number of responders. As a reminder, the clearance is a measure of how efficiently the substance is removed, as volume per time.

The record behind these values is ChEMBL document CHEMBL5244211, “Current anti-diabetic agents and their molecular targets: A review” (Eur J Med Chem, 2018).
